{
  "source": "patent EP0230013A1",
  "about": "“New anthracycline derivatives, uses thereof as antitumor agent and production thereof” (ZAIDAN HOJIN BISEIBUTSU KAGAKU KENKYU KAI, priority 1985, dated 1987)",
  "key": {"Leukemia L-1210 cells": {"system": "Leukemia L-1210 cells", "experiment": "Antitumor activity on leukemia in mice caused by Leukemia L-1210 cells (Test I)", "format": "in vivo", "set-up": "key: *: shows that a toxicity or its sign of the compound tested in the animals tested such as death due to toxicity or weight loss was observed", "settings": "L-1210 mice", "procedure": "Antitumor activity on leukemia in CDF, mice caused by Leukemia L-1210 cells\nIn this test, Compound Nos. I and 2 of this invention were assessed in comparison with daunomycin and adriamycin on their tumor inhibitory activity against leukemia in mice. Thus, CDF, mice were intraperitoneally transplanted with cells of Leukemia L-1210 (I ^x 10^5 cells/mouse). From 24 hours after i.p. transplantation of L 1210 cells, each compound to be tested was administered intraperitoneally for 9 consecutive days at once per day. Observation was made for 60 days where survival days of each mouse tested were recorded and percentage increase in lifespan of the treated mice, in comparison with control test wherein mice were treated only, with the administration of physiological saline, was calculated as T/C % where T is the mean survival days of the treated animals and C is the mean survival days of the untreated control animals.The test results are shown in Table I."}, "Leukemia P 388": {"system": "Leukemia P 388", "settings": "cited from earlier work"}, "Leukemia L-1210": {"system": "Leukemia L-1210", "settings": "dosage of 25 mg/kg, single dose per day, intraperitoneally for 9 days, Leukemia L-1210 mice; cited from earlier work"}, "[1]": {"experiment": "Acid hydrolysis of the glycoside linkage, analysed by TLC (Test 2)", "format": "physicochemical", "from_the_text": "A further advantage of the anthracycline derivatives of formula (I) according to this invention is in that the susceptibility of the glycoside linkage to be broken by acid hydrolysis is very low. This is, we believe, to be one of reasons why the compounds of this invention are of low toxicity. […] Of course, a high chemical stability of a compound in vitro is not always related to its stability against hydrolysis in vivo, but it may be assumed in view of high anticancer effects in vivo of the compounds of this invention that the glycoside linkage of those compounds is of high stability in vivo, too. In any case, it is true that such high chemical stability of the glycoside linkage of the compounds of this invnetion is advantageous in that it makes the handling of those compounds easy in chemical applications. Test 2 given below illustrates the high stability of the glycoside linkage of the compounds of this invention.\nDaunomycin (I mg) was dissolved in a mixture (0.1 ml) of 0.2 N^*HCI-80% CH3CN-H,O (^* the 0.2 N concentration of HCI being of the said mixture) and the solution was heated in an oil bath at 61 -62°C for 30 minutes to cause the hydrolysis. […] The reaction solution was allowed to stand at room temperature to deposit daunomycinone as red crystals.\nFTDM (0.7 mg) was suspended in a mixture (0.1 ml) of 0.2 N HCI-80% CH,CN-H20 and the suspension was stirred in an oil bath at 61 -62°C for 30 minutes.\nA futher amount (0.3 ml) of the mixture of 0.2N HCI-80% CH3CN-H20 was added to the reaction mixture, when the mixture substantially became a solution with a little amount of insolubles. Then, it was heated to 61-62°C under stirring to give a homogeneous solution."}, "[2]": {"settings": "Dose 5 mg/kg/day i.p. for 9 days"}, "[3]": {"settings": "0.2 N HCl-80% CH3CN-H2O, 61 -62°C (about 60°C), 30 minutes"}},
  "note": "Where two headings read alike, the source gives them in different places.",
  "data": [
    {"smiles": "COc1cccc2c1C(=O)c1c(O)c3c(c(O)c1C2=O)C[C@@](O)(C(=O)CO)C[C@@H]3O[C@H]1C[C@H](N)[C@H](O)[C@H](C)O1", "note": "[Adriamycin, adriamycin]", "values": [
      {"measurement": "toxicity or its sign (death due to toxicity or weight loss)", "setting": "Leukemia L-1210 cells; [2]", "value": "*"}
    ]},
    {"smiles": "COc1cccc2c1C(=O)c1c(O)c3c(c(O)c1C2=O)C[C@@](O)(C(C)=O)C[C@@H]3O[C@@H]1O[C@@H](C)[C@@H](OC(C)=O)[C@@H](OC(C)=O)[C@H]1I", "note": "[Compound NSC 327,472, 7-O-(3,4-di-O-acetyl-2,6-dideoxy-2-iodo-a-L-talohexopyranosyl)daunomycinone]", "values": [
      {"measurement": "increase (%) of survival days of the Leukemia P 388-inoculated mice treated", "setting": "Leukemia P 388; dosage of 12.5 mg/kg to 25 mg/kg", "value": 172, "unit": "%"},
      {"measurement": "increase (%) of survival days of the Leukemia P 388-inoculated mice treated", "setting": "Leukemia P 388; dosage of 150 mg/kg", "value": 162, "unit": "%"}
    ]},
    {"smiles": "COc1cccc2c1C(=O)c1c(O)c3c(c(O)c1C2=O)C[C@@](O)(C(C)=O)C[C@@H]3O[C@@H]1O[C@@H](C)[C@H](OC(C)=O)[C@@H](OC(C)=O)[C@H]1I", "note": "[Compound NSC 331,962, 7-O-(3,4-di-O-acetyl-2,6-dideoxy-2-iodo-a-L-mannohexopyranosyl) daunomycinone]", "values": [
      {"measurement": "increase (in %) of survival days of the mice treated, compared to the mice untreated (T/C, %)", "setting": "Leukemia P 388; dosage of 50 mg/kg, Leukemia P 388 mice", "value": 247, "unit": "%"},
      {"measurement": "increase (in %) of survival days of the mice treated, as compared to the mice untreated (T/C, %)", "setting": "Leukemia L-1210", "value": 196, "unit": "%"}
    ]},
    {"smiles": "COc1cccc2c1C(=O)c1c(O)c3c(c(O)c1C2=O)C[C@@](O)(C(C)=O)C[C@@H]3O[C@@H]1O[C@@H](C)[C@@H](O)[C@@H](O)[C@H]1F", "note": "[Compound No. 1, 7-O-(2,6-dideoxy-2-fluoro-α-L-talopyranosyl)daunomycinone]", "values": [
      {"measurement": "acid hydrolysis (TLC)", "setting": "[1]; [3]", "value": "presence of the spot of FTDM only"},
      {"measurement": "acid hydrolysis (TLC)", "setting": "[1]; 0.2N HCl-80% CH3CN-H2O, 61-62°C, further 3 hours", "value": "the spot of FTDM only"},
      {"measurement": "acid hydrolysis (TLC)", "setting": "[1]; 1 N HCl in acetonitrile-water (4:1), 61-62°C (about 60°C), 8 hours, listed as Compound No. I", "value": "remains substantially as it is,without being decomposed"},
      {"measurement": "acid hydrolysis (TLC)", "setting": "[1]; 1 N HCl in acetonitrile-water (4:1), 61-62°C (about 60°C), 8 hours, listed as FTDM", "value": "a spot of a trace amount of daunomycinone appeared, but most of FTDM was also present as it was"}
    ]},
    {"smiles": "COc1cccc2c1C(=O)c1c(O)c3c(c(O)c1C2=O)C[C@@](O)(C(C)=O)C[C@@H]3O[C@H]1C[C@H](N)[C@H](O)[C@H](C)O1", "note": "[Daunomycin, daunomycin]", "values": [
      {"measurement": "toxicity or its sign (death due to toxicity or weight loss)", "setting": "Leukemia L-1210 cells; Dose 2.5 mg/kg/day i.p. for 9 days", "value": "*"},
      {"measurement": "toxicity or its sign (death due to toxicity or weight loss)", "setting": "Leukemia L-1210 cells; [2]", "value": "*"},
      {"measurement": "acid hydrolysis (TLC)", "setting": "[1]; [3]", "value": "disappearance of the spot of daunomycin"},
      {"measurement": "acid hydrolysis (TLC)", "setting": "[1]; 0.2 N HCl-80% CH3CN-H2O, 61 -62°C (about 60°C), 30 minutes, listed as daunomycin", "value": "completely decomposed"}
    ]}
  ]
}
